Data reported in ChEMBL document CHEMBL6083204, “Synthesis of a celastrol derivative as a cancer stem cell inhibitor through regulation of the STAT3 pathway for treatment of ovarian cancer” (RSC Med Chem, 2024).
Active and inactive are the calls of the source. No cut-off for these calls is given here.

Assays:
A2780 [1] = assay: Induction of cell cycle arrest in human A2780 cells assessed as reduction of CDK2 expression at 0.8 uM incubated for 24 hrs by flow cytometry (reference value: 92.5 %); assay type: functional; design: scale not given: the % may be the effect or the level left
SK-OV-3 [2] = assay: Induction of cell cycle arrest in human SK-OV-3 cells assessed as reduction of Cyclin D1 expression at 0.4 uM incubated for 24 hrs by flow cytometry (reference value: 93.8 %); assay type: functional; design: scale not given: the % may be the effect or the level left
SK-OV-3 [3] = assay: Induction of cell cycle arrest in human SK-OV-3 cells assessed as accumulation of cells at G0/G1 phase at 0.8 uM incubated for 24 hrs by BrdU staining based flow cytometry (reference value: 59.8 %); assay type: functional
[4] = target: Signal transducer and activator of transcription 3 (Homo sapiens) (UniProt P40763); assay: Inhibition of STAT3 in human A2780 cells assessed as downregulation of STAT3 expression in nuclei at 0.2 uM incubated for 24 hrs by Hoechst33342 staining based immunofluorescence assay; assay type: cell-based
Signal transducer and activator of transcription 3 (Homo sapiens), sequence (P40763 whole entry): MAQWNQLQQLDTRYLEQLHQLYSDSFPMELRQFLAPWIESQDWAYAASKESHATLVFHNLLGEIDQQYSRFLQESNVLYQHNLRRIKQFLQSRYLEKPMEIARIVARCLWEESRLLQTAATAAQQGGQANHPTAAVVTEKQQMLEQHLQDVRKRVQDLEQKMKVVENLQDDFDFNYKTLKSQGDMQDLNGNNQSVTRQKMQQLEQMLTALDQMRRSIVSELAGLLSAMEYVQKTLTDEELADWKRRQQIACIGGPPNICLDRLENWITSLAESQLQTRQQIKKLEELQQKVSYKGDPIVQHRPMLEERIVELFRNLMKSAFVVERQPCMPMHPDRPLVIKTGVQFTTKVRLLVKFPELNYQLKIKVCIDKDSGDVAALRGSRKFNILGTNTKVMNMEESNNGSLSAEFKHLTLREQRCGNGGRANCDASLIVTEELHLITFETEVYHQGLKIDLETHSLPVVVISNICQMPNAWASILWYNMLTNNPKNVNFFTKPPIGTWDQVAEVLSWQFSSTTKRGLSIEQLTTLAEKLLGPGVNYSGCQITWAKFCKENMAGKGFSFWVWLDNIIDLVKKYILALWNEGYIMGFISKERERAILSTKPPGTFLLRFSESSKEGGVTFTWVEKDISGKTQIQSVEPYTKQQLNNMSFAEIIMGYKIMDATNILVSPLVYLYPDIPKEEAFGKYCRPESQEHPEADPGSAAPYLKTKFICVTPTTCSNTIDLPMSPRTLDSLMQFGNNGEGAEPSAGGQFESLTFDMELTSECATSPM

A2780 [5] = assay: Antiproliferative activity against human A2780 cells assessed as decrease in CD44 positive CD24 negative cells expression at 0.2 uM incubated for 24 hrs by FITC staining based flow cytometry (reference value: 28.13 %); assay type: functional; design: scale not given: the % may be the effect or the level left
A2780 [6] = assay: Induction of apoptosis in human A2780 cells assessed as late apoptotic cells at 0.8 uM incubated for 24 hrs by Annexin V-FITC/7-AAD staining based flow cytometry (reference value: 2.1 %); assay type: functional
A2780 [7] = assay: Induction of apoptosis in human A2780 cells assessed as viable cells at 0.2 uM incubated for 24 hrs by Annexin V-FITC/7-AAD staining based flow cytometry (reference value: 95 %); assay type: functional; settings: read-out: Activity
A2780 [8] = assay: Induction of cell cycle arrest in human A2780 cells assessed as accumulation of cells at G2/M phase at 0.8 uM incubated for 24 hrs by BrdU staining based flow cytometry (reference value: 6.2 %); assay type: functional
A2780 [9] = assay: Inhibition of colony formation in human A2780 cells assessed as reduction in colony size incubated for 10 days by crystal violet staining based analysis; assay type: functional, cell-based; settings: time 10.0 day
[10] = target: Signal transducer and activator of transcription 3 (Homo sapiens) (UniProt P40763); assay: Inhibition of STAT3 in human SK-OV-3 cells assessed as downregulation of STAT3 phosphorylation at Ser727 residue in nuclei at 0.2 uM incubated for 24 hrs by Hoechst33342 staining based immunofluorescence assay; assay type: cell-based
[11] = Selectivity index, ratio of IC50 for cytotoxicity against human IOSE80 cells to IC50 for cytotoxicity against human SK-OV-3 cells

CC1=C(O)C(=O)C=C2C1=CC=C1[C@@]2(C)CC[C@@]2(C)[C@@H]3C[C@](C)(C(=O)N4CCNCC4)CC[C@]3(C)CC[C@]12C
Activity (A2780 [1]): 8.6%
Activity (SK-OV-3 [2]): 68.2%
Activity (SK-OV-3 [3]): 47.7%
inhibition [4]: Active
Activity (A2780 [5]): 17.97%
Activity (A2780 [6]): 66.7%
viability at 0.2 µM (A2780 [7]): 89.3%
Activity (A2780 [8]): 24.3%
inhibition (A2780 [9]): Dose-dependent-effect
inhibition [10]: Active
Ratio IC50 [11]: 4.81
